Assay results taken from patent EP3027591B1, “NOVEL DERIVATIVES OF A 3,4-DIHYDROISOQUINOLINE-3-CARBOXYLIC ACID HAVING ANTI-CANCER PROPERTIES, A METHOD FOR THEIR SYNTHESIS, PHARMACEUTICAL COMPOSITIONS COMPRISING SAID DERIVATIVES, AND THEIR USE” (Narodowy Instytut Zdrowia Publicznego Panstwowy Zaklad …, priority 2013, dated 2015).
Values after ≈ are worked out from the molar mass of the structure shown. Where two headings read alike, the source gives them in different places.

Legend:
[1] = test system: Balb/3T3 (normal mouse fibroblasts); test: Cytotoxic activity against normal cells, SRB test; assay type: cell-based; conditions: Balb/3T3, 72-hour culture
Protocol: (§1) 4.3. Cytotoxic activity evaluation against normal cell lines with diverse tissue origins using the SRB test:
(§2) • a) normal mouse fibroblasts (BALB/3T3), • b) normal mammary gland cells (MCF-10), • c) normal human epithelium (HLMEC)
(§3) The stock solution of the tested compound with concentration of 20 mg/ml was prepared day before the analysis by dissolving the preparation in DMSO, followed by storage in -20°C. After 24 hours the preparation was thawed and diluted with the culture medium. The compounds were tested in concentrations of 100, 10, 1, 0.1 0.01 µg/ml.
(§4) The following human cancer cell lines were used in the study: HL-60 (promyelocytic leukemia), HL-60/MX2 (promyelocytic leukemia, line resistant to mitoxantrone), MCF7 (mammary gland cancer), LoVo (colorectal cancer), LoVo/Dx (colorectal cancer with multidrug resistance), HCV29T (bladder cancer), A498 (kidney cancer), A549 (lung cancer) and LNCaP (prostate cancer), as well as normal cell lines: BALB3T3 (normal mouse fibroblasts), MCF-10 (normal mammary gland cells) and HLMEC (normal human endothelium).
(§5) The cells in the phase of logarithmic growth were seeded on a 96-well plate (Sarsted) in quantity of 1 x 10^4 cells/well, and then incubated at 37°C, 5% CO2 for 24 hours. Subsequently, the tested compound was added in different concentrations and the incubation was carried out. […] For each assay the samples containing predetermined preparation concentrations were applied in triplicates. The experiments were repeated 3-5 times.
(§6) Sulphorhodamine B (SRB) is an anionic dye which binds to […] amino acids of cellular proteins. The determination of cytotoxic activity in the assay is based on the measurement of the amount of cellular proteins.
(§7) After the incubation is finished the attached cells are fixed with cold 50% TCA (4°C) at 4°C for 1 hour. Next, each well is washed with water and air dried, repeating this step 5 times.
(§8) 0.4% SRB solution (Sigma-Aldrich) dissolved in 1% acetic acid is added consecutively to each well and the staining is carried out for 30 minutes. The unbound dye is removed and the cells are washed 4 times with 1% acetic acid. Next, the plate is air dried for about 5 minutes.
(§9) The bound dye is dissolved by adding 10 mM Tris-base to each well and then OD is determined for wavelength 540 nm (Multiscan RC photometer, Labsystes, Helsinki).

[2] = test system: HLMEC (normal human epithelium); test: Cytotoxic activity against normal cells, SRB test; assay type: cell-based; conditions: 72-hour culture
Protocol: as §1, §2, §3, §4, §5, §6, §7, §8, §9

[3] = test system: MCF-10 (normal mammary gland cells); test: Cytotoxic activity against normal cells, SRB test; assay type: cell-based
Protocol: as §1, §2, §3, §4, §5, §6, §7, §8, §9

[4] = test system: HL-60 (promyelocytic leukemia); test: Anti-proliferative activity, MTT test; assay type: cell-based, human; conditions: HL-60, 72-hour culture
Protocol: (§10) 4.2. Anti-proliferative activity evaluation using the MTT test [Marcinkowska et al.: J. Steroid Biochem. Mol. 76: 71-78, 1998] against human cancer cell lines with diverse tissue origins and determination of the IC50 concentration: • a) promyelocytic leukemia HL-60, • b) promyelocytic leukemia HL-60/MX2 (with multidrug resistance)
as §3, §4, §5
(§11) The method involves a measurement of cell number increase inhibition utilizing the redox activity of mitochondria. The determination of biological activity with the MTT (3-(4,5-dimethylthiazol-2-yl)-2,5-diphenyltetrazolium bromide) assay is based on the assumption that reduction of the dye occurs only in viable cells. As a result of mitochondrial dehydrogenase activity the water-soluble tetrazolium salt (thiazolyl blue […] - MTT) is converted to water-insoluble formazan crystals. The quantity of the formed formazan crystals is proportional to the number of cells.
(§12) 3-4 hours before the end of cell incubation 20 µl of MTT solution (5 mg/ml) was added to each well. Next, 80 µl of dissolving mixture (with the following composition: 225 ml DMF (POCh), 67.5 g SDS (Sigma-Aldrich), 275 ml distilled H2O) was added. After 24 hours, formazan crystals were dissolved and OD of the samples was measured for wavelength 570 nm (Multiskan PC photometer, Labsystem, Helsinki).

[5] = test system: HL-60 MX2 (promyelocytic leukemia with multidrug resistance); test: Anti-proliferative activity, MTT test; assay type: cell-based, human
Protocol: as §10, §3, §4, §5, §11, §12

A498 (kidney cancer) = test: Anti-proliferative activity, SRB test; assay type: cell-based, human; conditions: A498, 72-hour culture
Description: (§13) 4.1. Anti-proliferative activity evaluation using the SRB test [Skehan et al., J. Natl. Cancer Inst., 82: 1107-1112, 1990] against human cancer cell lines with diverse tissue origins and determination of the IC50 concentration: • a) colorectal cancer LoVo, • b) colorectal cancer LoVo/DX (with multidrug resistance), • c) breast cancer MCF-7, • d) prostate cancer LNCaP, • e) bladder cancer HCV29T, • f) kidney cancer A498, • g) lung cancer A549
as §3, §4, §5, §6, §7, §8, §9

A549 (lung cancer) = test: Anti-proliferative activity, SRB test; assay type: cell-based, human; conditions: A549, 72-hour culture
Description: as §13, §3, §4, §5, §6, §7, §8, §9

HCV29T (bladder cancer) = test: Anti-proliferative activity, SRB test; assay type: cell-based, human; conditions: 72-hour culture
Description: as §13, §3, §4, §5, §6, §7, §8, §9

LNCaP (prostate cancer) = test: Anti-proliferative activity, SRB test; assay type: cell-based, human; conditions: 72-hour culture
Description: as §13, §3, §4, §5, §6, §7, §8, §9

Lovo (colorectal cancer) = test: Anti-proliferative activity, SRB test; assay type: cell-based, human; conditions: 72-hour culture
Description: as §13, §3, §4, §5, §6, §7, §8, §9

[6] = test system: Lovo/Dx (colorectal cancer with multidrug resistance); test: Anti-proliferative activity, SRB test; assay type: cell-based, human; conditions: 72-hour culture
Description: as §13, §3, §4, §5, §6, §7, §8, §9

MCF-7 (breast cancer) = test: Anti-proliferative activity, SRB test; assay type: cell-based, human
Description: as §13, §3, §4, §5, §6, §7, §8, §9

[7] = biological target: T1, pig kidney microsomal leucyl aminopeptidase, Type IV-S (Sus scrofa, UniProt P15145); test: Leucyl aminopeptidase inhibition (L-leucine p-nitroanilide substrate, absorbance 405 nm); assay type: biochemical; conditions: pre-incubation 30 minutes at 37 °C, pH 8.5; IC50 by linear regression
T1 construct: pig kidney microsomal leucyl aminopeptidase, Type IV-S (Sigma-Aldrich) 3.5 mg of protein/ml; purchased Sigma-Aldrich; host or cells: pig kidney (microsomal fraction)
T1 sequence (P15145 1-963): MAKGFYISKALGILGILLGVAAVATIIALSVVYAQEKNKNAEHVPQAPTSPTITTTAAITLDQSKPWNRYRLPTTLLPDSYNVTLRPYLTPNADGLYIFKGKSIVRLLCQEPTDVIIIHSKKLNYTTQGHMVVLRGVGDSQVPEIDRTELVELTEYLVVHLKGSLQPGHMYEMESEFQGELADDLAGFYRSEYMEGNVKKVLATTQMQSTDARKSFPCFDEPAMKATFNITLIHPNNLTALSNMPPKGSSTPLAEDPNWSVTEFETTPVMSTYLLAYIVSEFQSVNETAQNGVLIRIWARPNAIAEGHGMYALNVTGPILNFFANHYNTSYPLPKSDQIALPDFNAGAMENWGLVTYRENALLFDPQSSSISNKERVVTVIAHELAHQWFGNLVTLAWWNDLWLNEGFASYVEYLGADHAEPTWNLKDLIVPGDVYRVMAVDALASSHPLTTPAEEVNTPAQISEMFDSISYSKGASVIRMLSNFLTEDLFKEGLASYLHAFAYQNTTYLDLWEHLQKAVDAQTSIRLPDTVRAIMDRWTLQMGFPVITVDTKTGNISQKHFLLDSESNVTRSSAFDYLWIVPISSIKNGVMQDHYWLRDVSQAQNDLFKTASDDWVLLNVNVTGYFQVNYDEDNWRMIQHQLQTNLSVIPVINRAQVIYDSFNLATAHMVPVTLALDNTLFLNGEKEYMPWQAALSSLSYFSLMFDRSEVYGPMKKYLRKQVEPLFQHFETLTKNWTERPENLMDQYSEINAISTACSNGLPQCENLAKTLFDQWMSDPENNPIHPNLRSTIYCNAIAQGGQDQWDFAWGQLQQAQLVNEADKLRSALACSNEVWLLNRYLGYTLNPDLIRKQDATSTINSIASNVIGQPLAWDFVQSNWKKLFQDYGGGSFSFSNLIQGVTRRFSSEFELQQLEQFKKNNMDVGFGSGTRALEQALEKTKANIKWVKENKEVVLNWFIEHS
Protocol: Leucyl aminopeptidase inhibition according to Cahan R., Hetzroni E., Nisnevitch M., Nitzan Y.: Purification and Identification of a Novel Leucine Aminopeptidase from Bacillus Thuringiensis israelensis. Curr. Microbial (2007) 55: 413-419.
• 1. Enzyme: pig kidney microsomal leucyl aminopeptidase, Type IV-S (Sigma-Aldrich) 3.5 mg of protein/ml, 28 U/mg of protein; diluted with 0.02M Tris-HCl + 0.5 mM CaCl2 buffer pH=8.5 until activity 0.01225U achieved • 2. Substrate: L-leucine p-nitroanilide: 4.2 mg / 269 µl DMSO; solution diluted 1:19 with 0.02 M Tris-HCl buffer, pH = 8.5 + 0.5 mM CaCl2 • 3. 0.02 M Tris-HCl buffer, pH = 8.5 + 0.5 mM CaCl2 • 4. DMSO, inhibitor solution in DMSO
5 µl of leucyl aminopeptidase ([…]), 70 µl of Tris, 5 µl of inhibitor solution in different concentrations (in DMSO) were added to the wells of a microtitration plate, followed by pre-incubation for 30 minutes at 37 °C. Next, 20µl of diluted L-leucine p-nitroanilide solution was added, whereupon the reaction mixture was incubated for 20 minutes at 37 °C, with measurement of absorbance changes for wavelength 405 nm (Fluorostar, Omega, BMG Labtech). The control sample for the enzyme contained analogous components, while instead of the inhibitor solution DMSO (5 µl) was added.
For each inhibitor concentration the percentage inhibition was calculated. The inhibitor concentration required for 50% of enzyme activity inhibition (IC50) was calculated based on linear regression data between the percentage inhibition and the concentration for a given inhibitor.

[8] = Homo sapiens, MCF10, MCF-10, 72-hour culture, read-out: IC50
[9] = Homo sapiens, HL60/MX2, HL-60 MX2, 72-hour culture, read-out: IC50
[10] = Homo sapiens, MCF7, MCF-7, 72-hour culture, read-out: IC50

Row | Compound | IC50 [7] [µM] | IC50 ([1]; Mus musculus, read-out: IC50) [µg/mL] | IC50 ([2]; Homo sapiens, read-out: IC50) [µg/mL] | IC50 [3, 8] [µg/mL] | IC50 ([4]; Homo sapiens, read-out: IC50) [µg/mL] | IC50 [5, 9] [µg/mL] | IC50 (A498 (kidney cancer); Homo sapiens, read-out: IC50) [µg/mL] | IC50 (A549 (lung cancer); Homo sapiens, read-out: IC50) [µg/mL] | IC50 (HCV29T (bladder cancer); Homo sapiens, read-out: IC50) [µg/mL] | IC50 (LNCaP (prostate cancer); Homo sapiens, read-out: IC50) [µg/mL] | IC50 (Lovo (colorectal cancer); Homo sapiens, read-out: IC50) [µg/mL] | IC50 ([6]; Homo sapiens, read-out: IC50) [µg/mL] | IC50 (MCF-7 (breast cancer); [10]) [µg/mL] | other results
1 | N.N.[Cl][Pt][Cl] [Cisplatin, reference compound] |  |  |  |  |  |  |  |  |  |  |  |  |  | IC50 [1]: 2.4 ± 0.3 µg/mL; IC50 [2]: 2.6 ± 0.3 µg/mL; IC50 ([3]; MCF-10, 72-hour culture): 0.7 µg/mL; IC50 [4]: 0.4 ± 0.1 µg/mL; IC50 ([5]; HL-60 MX2, 72-hour culture): 0.32 ± 0.02 µg/mL; IC50 (A498 (kidney cancer)): 2.8 ± 0.6 µg/mL; IC50 (A549 (lung cancer)): 3.2 ± 1.0 µg/mL; IC50 (HCV29T (bladder cancer)): 2.7 ± 0.6 µg/mL; IC50 (LNCaP (prostate cancer)): 6.2 ± 1.3 µg/mL; IC50 (Lovo (colorectal cancer)): 2.5 ± 1.3 µg/mL; IC50 [6]: 3.0 ± 0.7 µg/mL; IC50 (MCF-7 (breast cancer); MCF-7, 72-hour culture): 3.6 ± 0.6 µg/mL
2 | CCOC(=O)C1(C(=O)OCC)Cc2cc(OCc3ccccc3)cc(OCc3ccccc3)c2C=N1 [Compound 3, 6,8-dibenzyloxy-3,4-dihydroisoquinoline-3,3-dicarboxylic acid diethyl ester] | 28 | 17.4 ± 7.9 (≈ 35.6 µM) | 3.3 ± 0.3 (≈ 6.77 µM) | 15.3 (≈ 31.4 µM) | 0.12 (≈ 0.246 µM) | 1.3 (≈ 2.67 µM) | 6.5 ± 1.5 (≈ 13.3 µM) | 6.4 ± 2.3 (≈ 13.1 µM) | 4.3 ± 0.7 (≈ 8.82 µM) | 1.6 ± 0.3 (≈ 3.28 µM) | 3.1 ± 0.3 (≈ 6.36 µM) | 2 ± 0.8 (≈ 4.1 µM) | 4.7 ± 0.8 (≈ 9.64 µM) | 
3 | CCOC(=O)C1(C(=O)OCC)Cc2cc(O)cc(O)c2C=N1 [Compound 4, 6,8-dihydroxy-3,4-dihydroisoquinoline-3,3-dicarboxylic acid diethyl ester] | 1350 |  |  |  |  |  |  |  |  |  |  |  |  | 
4 | O=C(O)C1Cc2cc(O)c(O)c(O)c2C=N1 (stereo not drawn) [Compound 8, 6,7,8-trihydroxy-3,4-dihydroisoquinoline-3-carboxylic acid] | 3800 | 52.5 ± 22.3 (≈ 235 µM) | 33.4 ± 5 (≈ 150 µM) | 18.9 ± 11.4 (≈ 84.7 µM) | 27.7 ± 4.3 (≈ 124 µM) | 33.2 ± 2.7 (≈ 149 µM) | 40 ± 18.4 (≈ 179 µM) | 44.3 ± 6.7 (≈ 198 µM) | 28.7 ± 7.2 (≈ 129 µM) | 30.9 ± 5.7 (≈ 138 µM) | 33.6 ± 9.5 (≈ 151 µM) | 30.1 ± 2.3 (≈ 135 µM) | 18.9 ± 11.4 (≈ 84.7 µM) | 
